From patent US20150239889A1, “PYRAZOLOPYRIMIDINE COMPOUND” (MITSUBISHI TANABE PHARMA CORPORATION, priority 2012, published 2015) come the findings set out here.

The pIC50 is the IC50 on a negative log10 scale, so that one unit is a factor of ten.

The target in one test is T1, human HIF-PHD2 (Homo sapiens, UniProt Q9GZT9).
T1 construct: purchased CrystalGenomics Ltd
The test is described as follows: HIF-PHD inhibition assay (fluorescence polarization), human HIF-PHD2. Format: biochemical. As to conditions: 2-oxoglutaric acid 3.33 μmol/L. The method, boiled down: (§1)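 FP readout; enzyme activity = mP post-enzyme − mP pre-enzyme. FAM-labelled probe, ACA spacer.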
For orientation: Fluorescence polarisation rises when a labelled molecule tumbles more slowly, as on binding a larger partner.

A further test addresses T2, human HIF-PHD3 (Homo sapiens, UniProt Q9H6Z9).
T2 construct: purchased CrystalGenomics Ltd
The test is described as follows: HIF-PHD inhibition assay (fluorescence polarization), human HIF-PHD3. Type of test: biochemical. As to conditions: 2-oxoglutaric acid 166 μmol/L. An outline of the steps: as §1

The next test concerns Hep3B cells. In words: EPO production assay (ELISA of culture supernatant). Type of test: cell-based. The following applies: Homo sapiens, 3 μmol/L test compound, 48 hours, relative to control (0.1% DMSO), read-out: EPO production stimulation rate with 3 μmol/L test compound. An outline of the steps: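 Values are fold EPO production at 3 μmol/L compound relative to untreated control, quantified by ELISA of culture supernatant. Hep3B cells were exposed for 48 h in MEM containing 0.5% FBS and 0.1% DMSO.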
On the technique in general: ELISA stands for enzyme-linked immunosorbent assay.

pIC50: −log10 of the molar value.

T1 sequence (Q9GZT9 2-426 limits assumed): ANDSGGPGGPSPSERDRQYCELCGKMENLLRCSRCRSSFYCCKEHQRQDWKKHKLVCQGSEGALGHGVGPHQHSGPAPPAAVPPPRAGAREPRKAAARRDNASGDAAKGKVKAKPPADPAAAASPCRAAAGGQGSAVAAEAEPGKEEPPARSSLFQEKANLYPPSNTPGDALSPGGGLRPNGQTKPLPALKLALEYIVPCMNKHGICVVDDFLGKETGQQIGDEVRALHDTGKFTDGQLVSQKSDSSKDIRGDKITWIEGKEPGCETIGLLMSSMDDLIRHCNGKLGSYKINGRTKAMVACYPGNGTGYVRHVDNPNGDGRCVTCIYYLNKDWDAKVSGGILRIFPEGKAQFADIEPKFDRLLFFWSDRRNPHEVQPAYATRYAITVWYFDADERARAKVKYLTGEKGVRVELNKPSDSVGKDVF
T2 sequence (Q9H6Z9 whole entry): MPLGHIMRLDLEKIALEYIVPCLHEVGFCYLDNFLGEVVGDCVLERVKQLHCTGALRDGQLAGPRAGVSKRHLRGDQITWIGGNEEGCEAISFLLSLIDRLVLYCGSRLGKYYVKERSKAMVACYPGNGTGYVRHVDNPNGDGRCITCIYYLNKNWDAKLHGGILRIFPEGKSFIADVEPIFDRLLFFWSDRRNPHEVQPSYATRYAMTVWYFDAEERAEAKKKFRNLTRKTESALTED

As for `Cc1nn(C[C@H]2CC[C@H](C(F)(F)F)CC2)c2c(O)nc(-n3cc(C(=O)O)cn3)nc12` [Example 474], the negative-log IC50 (pIC50) is 7.52 against human HIF-PHD2 and 6.72 against human HIF-PHD3. Also, the fold induction at 3 µM in the test with Hep3B cells worked out at 2.8.

Turning to `Cc1nn(CCC2CCCC2)c2c(O)nc(-n3cc(C(=O)O)cn3)nc12` [Example 476], the pIC50 is 7.44 against human HIF-PHD2 and 6.24 on human HIF-PHD3. Further, in the test on Hep3B cells, the fold induction at 3 µM was 2.7.

As for `O=C(O)c1cnn(-c2nc(O)c3c(n2)c(C(F)(F)F)nn3CC2CCCCC2)c1` [Example 477], the pIC50 against human HIF-PHD2 is 6.74; on human HIF-PHD3, 6.08. In addition, in the test on Hep3B cells, the fold induction at 3 µM came out at 2.5.

Consider `O=C(O)c1cnn(-c2nc(O)c3c(n2)c(F)nn3C2CCCCC2)c1` [Example 478], for which the pIC50 is 7.35 against human HIF-PHD2 and 6.43 against human HIF-PHD3. The fold induction at 3 µM in the test on Hep3B cells was found to be 1.8.

With `O=C(O)c1cnn(-c2nc(O)c3[nH]ncc3n2)c1` [Example 484], the figures for the pIC50 against human HIF-PHD2 and against human HIF-PHD3 were 7.46 and less than 6.00, respectively. Also, the fold induction at 3 µM in the test with Hep3B cells was found to be 1.6.

As to `CCCC(C)(C)Cn1ncc2nc(-n3cc(C(=O)O)cn3)nc(O)c21` [Example 493], the pIC50 was 7.07 at human HIF-PHD2 and 6.26 against human HIF-PHD3. The fold induction at 3 µM in the test on Hep3B cells was 2.8.

On to `CCCC(CCC)Cn1ncc2nc(-n3cc(C(=O)O)cn3)nc(O)c21` [Example 495], for which the pIC50 on human HIF-PHD2 is 7.17; against human HIF-PHD3 it was 6.30. The fold induction at 3 µM in the test with Hep3B cells is 18.

In the case of `CCC(CC)Cn1nc(F)c2nc(-n3cc(C(=O)O)cn3)nc(O)c21` [Example 498], the pIC50 on human HIF-PHD2 was 7.31; at human HIF-PHD3 it was 6.51. Also, in the test with Hep3B cells, the fold induction at 3 µM was determined as 2.7.
